Columns and labels:
[1] = DRUGMATRIX: Calcium Channel Type L, Dihydropyridine radioligand binding (ligand: [3H] Nitrendipine); type: cell membranes, Rattus norvegicus, Wistar, Cerebral cortex, Membrane; conditions: Not Active = under 50% inhibition at 10 µM
[2] = target: T1, Polyunsaturated fatty acid lipoxygenase ALOX15 (Oryctolagus cuniculus, UniProt P12530); assay: biochemical; type: tissue-based, Reticulocytes;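 further: inhibition of 15-lipoxygenase enzyme activity measured with linoleic acid as the substrate; in other assays of this panel Not Active means under 50% inhibition at 10 µM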
T1 sequence (P12530 whole entry): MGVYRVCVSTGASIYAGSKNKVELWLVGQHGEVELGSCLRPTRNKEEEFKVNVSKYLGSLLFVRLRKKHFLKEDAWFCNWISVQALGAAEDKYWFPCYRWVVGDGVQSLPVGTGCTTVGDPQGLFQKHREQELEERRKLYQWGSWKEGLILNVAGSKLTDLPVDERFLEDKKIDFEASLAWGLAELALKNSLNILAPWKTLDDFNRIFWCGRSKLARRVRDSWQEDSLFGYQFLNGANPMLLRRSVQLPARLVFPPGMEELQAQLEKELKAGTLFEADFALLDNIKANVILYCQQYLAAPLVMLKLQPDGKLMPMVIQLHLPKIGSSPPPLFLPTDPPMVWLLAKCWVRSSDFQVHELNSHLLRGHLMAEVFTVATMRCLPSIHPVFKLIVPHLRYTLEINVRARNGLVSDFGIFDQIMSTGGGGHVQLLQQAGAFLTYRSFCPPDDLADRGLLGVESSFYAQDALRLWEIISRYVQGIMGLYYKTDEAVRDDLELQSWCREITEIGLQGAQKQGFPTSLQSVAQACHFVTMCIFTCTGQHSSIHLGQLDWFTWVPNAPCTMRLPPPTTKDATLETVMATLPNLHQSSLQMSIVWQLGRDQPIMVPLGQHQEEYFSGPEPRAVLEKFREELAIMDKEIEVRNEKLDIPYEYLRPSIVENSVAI

[3] = target: C-C chemokine receptor type 5 (Homo sapiens, UniProt P51681); type: cell membranes, HEK293, Membrane; conditions: hek293; further: in other assays of this panel Not Active means under 50% inhibition at 10 µM
C-C chemokine receptor type 5, sequence (P51681 whole entry): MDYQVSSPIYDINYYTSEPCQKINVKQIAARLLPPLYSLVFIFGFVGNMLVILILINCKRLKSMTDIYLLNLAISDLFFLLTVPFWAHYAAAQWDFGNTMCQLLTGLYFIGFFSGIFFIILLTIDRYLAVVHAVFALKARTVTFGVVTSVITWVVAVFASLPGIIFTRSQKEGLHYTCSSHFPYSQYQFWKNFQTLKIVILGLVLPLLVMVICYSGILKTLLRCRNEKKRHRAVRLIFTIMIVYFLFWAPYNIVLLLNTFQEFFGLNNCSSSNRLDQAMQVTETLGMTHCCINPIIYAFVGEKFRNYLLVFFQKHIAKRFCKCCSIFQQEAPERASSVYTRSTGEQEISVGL

[4] = target: D(1A) dopamine receptor (Homo sapiens, UniProt P21728); assay: DRUGMATRIX: Dopamine D1 radioligand binding (ligand: [3H] SCH-23390); type: cell membranes, CHO, Membrane; conditions: cho; Not Active = under 50% inhibition at 10 µM
D(1A) dopamine receptor, sequence (P21728 whole entry): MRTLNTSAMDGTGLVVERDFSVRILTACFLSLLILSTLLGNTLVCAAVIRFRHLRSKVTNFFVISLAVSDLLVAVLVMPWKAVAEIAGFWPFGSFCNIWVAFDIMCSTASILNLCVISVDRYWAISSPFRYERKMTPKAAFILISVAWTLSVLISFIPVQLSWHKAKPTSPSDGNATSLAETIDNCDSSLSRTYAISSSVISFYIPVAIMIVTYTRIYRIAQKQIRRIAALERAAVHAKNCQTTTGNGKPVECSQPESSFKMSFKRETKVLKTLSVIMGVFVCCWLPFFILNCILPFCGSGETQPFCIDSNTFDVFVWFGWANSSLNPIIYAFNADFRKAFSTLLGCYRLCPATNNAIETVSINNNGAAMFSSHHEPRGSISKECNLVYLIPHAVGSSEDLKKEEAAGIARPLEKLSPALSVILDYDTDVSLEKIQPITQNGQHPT

[5] = target: Melanocortin receptor 5 (Homo sapiens, UniProt P33032); type: cell membranes, HEK293, Membrane; conditions: hek293; further: in other assays of this panel Not Active means under 50% inhibition at 10 µM
Melanocortin receptor 5, sequence (P33032 whole entry): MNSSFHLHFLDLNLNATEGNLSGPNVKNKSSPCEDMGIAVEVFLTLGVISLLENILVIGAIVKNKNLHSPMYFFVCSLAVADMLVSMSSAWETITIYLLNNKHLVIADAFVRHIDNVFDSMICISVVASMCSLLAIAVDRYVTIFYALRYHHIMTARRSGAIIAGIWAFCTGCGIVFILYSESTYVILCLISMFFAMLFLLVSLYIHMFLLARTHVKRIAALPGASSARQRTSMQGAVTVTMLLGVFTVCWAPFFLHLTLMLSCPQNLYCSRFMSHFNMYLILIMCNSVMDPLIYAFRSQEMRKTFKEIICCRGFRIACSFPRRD

[6] = target: Mu-type opioid receptor (Homo sapiens, UniProt P35372); assay: DRUGMATRIX: Opiate mu (OP3, MOP) radioligand binding (ligand: [3H] Diprenorphine); type: cell membranes, CHO-K1, Membrane; conditions: cho-k1; Not Active = under 50% inhibition at 10 µM
Mu-type opioid receptor, sequence (P35372 whole entry): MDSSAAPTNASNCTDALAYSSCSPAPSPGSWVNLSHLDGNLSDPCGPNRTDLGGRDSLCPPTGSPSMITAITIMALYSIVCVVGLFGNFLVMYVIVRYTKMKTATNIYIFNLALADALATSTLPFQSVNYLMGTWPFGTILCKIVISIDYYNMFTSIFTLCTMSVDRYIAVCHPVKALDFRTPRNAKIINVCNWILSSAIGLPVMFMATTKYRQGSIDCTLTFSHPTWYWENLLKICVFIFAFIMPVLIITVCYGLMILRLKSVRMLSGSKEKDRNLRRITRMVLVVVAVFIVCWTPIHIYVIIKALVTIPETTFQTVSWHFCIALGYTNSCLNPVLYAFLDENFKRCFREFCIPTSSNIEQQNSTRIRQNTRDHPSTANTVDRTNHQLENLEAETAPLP

[7] = target: T2, Nitric oxide synthase, inducible (Mus musculus, UniProt P29477); parameters: species or system Escherichia coli;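 further: inhibition of iNOS enzyme activity measured with L-arginine as substrate; in other assays of this panel Not Active means under 50% inhibition at 10 µM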
T2 sequence (P29477 whole entry): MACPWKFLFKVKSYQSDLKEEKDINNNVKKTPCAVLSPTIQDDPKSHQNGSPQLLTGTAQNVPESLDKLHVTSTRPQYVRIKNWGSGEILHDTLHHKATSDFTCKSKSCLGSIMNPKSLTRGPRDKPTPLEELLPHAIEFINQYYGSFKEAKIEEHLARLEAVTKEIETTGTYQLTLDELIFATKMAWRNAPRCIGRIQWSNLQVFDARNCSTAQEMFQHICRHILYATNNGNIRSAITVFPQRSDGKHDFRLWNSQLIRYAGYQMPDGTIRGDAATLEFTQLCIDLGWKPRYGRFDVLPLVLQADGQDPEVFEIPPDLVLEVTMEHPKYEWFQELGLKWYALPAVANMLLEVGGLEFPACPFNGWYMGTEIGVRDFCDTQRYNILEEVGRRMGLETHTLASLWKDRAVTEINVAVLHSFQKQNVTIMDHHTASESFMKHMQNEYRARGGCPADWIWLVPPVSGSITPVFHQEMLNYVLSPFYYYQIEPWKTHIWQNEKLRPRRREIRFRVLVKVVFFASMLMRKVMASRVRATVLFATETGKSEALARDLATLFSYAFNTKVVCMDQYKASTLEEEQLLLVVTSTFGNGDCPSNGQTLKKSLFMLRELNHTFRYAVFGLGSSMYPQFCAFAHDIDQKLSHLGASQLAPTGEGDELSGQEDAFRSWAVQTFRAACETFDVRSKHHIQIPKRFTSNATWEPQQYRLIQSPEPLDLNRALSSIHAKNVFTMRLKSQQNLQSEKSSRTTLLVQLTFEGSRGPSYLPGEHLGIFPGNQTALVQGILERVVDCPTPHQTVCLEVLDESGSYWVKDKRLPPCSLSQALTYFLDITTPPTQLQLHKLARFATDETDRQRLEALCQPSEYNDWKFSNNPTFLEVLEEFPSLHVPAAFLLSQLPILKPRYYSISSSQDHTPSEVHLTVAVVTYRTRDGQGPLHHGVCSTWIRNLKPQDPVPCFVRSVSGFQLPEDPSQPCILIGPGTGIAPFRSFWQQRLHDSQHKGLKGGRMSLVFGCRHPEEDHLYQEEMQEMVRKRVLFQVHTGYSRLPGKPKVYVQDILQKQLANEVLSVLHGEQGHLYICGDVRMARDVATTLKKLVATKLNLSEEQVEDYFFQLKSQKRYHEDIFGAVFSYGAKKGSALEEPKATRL

Compound	IC50 [1]	Ki [1]	IC50 ([2]; reticulocytes)	IC50 [3]	IC50 [4]	IC50 [5]	IC50 [6]	IC50 [7]	IC50 ([2]; read-out: IC50)
C[C@H]1C[C@H]2[C@@H]3CCC4=CC(=O)C=C[C@]4(C)[C@@]3(F)[C@@H](O)C[C@]2(C)[C@@]1(O)C(=O)CO [BETAMETHASONE]	Not Active	Not Active	Not Active	Not Active	Not Active	Not Active	Not Active	Not Active	–
CC(C)NCC(O)COc1ccc(CC(N)=O)cc1 (centres undefined) [ATENOLOL]	Not Active	Not Active	Not Active	Not Active	Not Active	Not Active	Not Active	Not Active	–
O=C1c2ccccc2C(=O)C1c1ccccc1 [PHENINDIONE]	Not Active	Not Active	Not Active	Not Active	Not Active	Not Active	Not Active	Not Active	–
CCCCCCNC(=O)n1cc(F)c(=O)[nH]c1=O [CARMOFUR]	Not Active	Not Active	Not Active	Not Active	Not Active	Not Active	Not Active	Not Active	–
O=c1[nH]cnc2c1ncn2[C@H]1CC[C@@H](CO)O1 [DIDANOSINE]	Not Active	Not Active	Not Active	Not Active	Not Active	Not Active	Not Active	Not Active	–
CC(=O)Nc1ccc2c(c1)Cc1ccccc1-2 [2-ACETYLAMINOFLUORENE]	Not Active	Not Active	Not Active	Not Active	Not Active	Not Active	Not Active	Not Active	–
CC(C)(c1ccc(O)cc1)c1ccc(O)cc1 [BISPHENOL A]	Not Active	Not Active	–	Not Active	Not Active	Not Active	Not Active	Not Active	1.3 µM
CO[C@H]1O[C@@H]2O[C@@]3(C)CC[C@H]4[C@H](C)CC[C@@H]([C@H]1C)[C@@]24OO3	Not Active	Not Active	Not Active	Not Active	Not Active	Not Active	Not Active	Not Active	–
C#C[C@]1(O)CC[C@H]2[C@@H]3CCC4=CC(=O)CC[C@@H]4[C@H]3CC[C@@]21C [NORETHINDRONE]	Not Active	Not Active	Not Active	Not Active	Not Active	Not Active	Not Active	Not Active	–
CN(Cc1cc(Br)cc(Br)c1N)C1CCCCC1 [BROMHEXINE]	Not Active	Not Active	Not Active	Not Active	Not Active	Not Active	Not Active	Not Active	–
CC12CCC(CC1=O)C2(C)C (centres undefined) [CAMPHOR]	Not Active	Not Active	Not Active	Not Active	Not Active	Not Active	Not Active	Not Active	–
C[C@@H]1[C@H](O)[C@@H](C)/C=C/C=C/C=C/C=C/C=C/C=C/C=C/[C@H](O[C@@H]2O[C@H](C)[C@@H](O)[C@H](N)[C@@H]2O)C[C@@H]2O[C@](O)(C[C@@H](O)C[C@@H](O)[C@H](O)CC[C@@H](O)C[C@@H](O)CC(=O)O[C@H]1C)C[C@H](O)[C@H]2C(=O)O [AMPHOTERICIN B]	Not Active	Not Active	Not Active	Not Active	Not Active	Not Active	Not Active	Not Active	–
CCN(CCO)CCCC(C)Nc1ccnc2cc(Cl)ccc12 (centres undefined) [HYDROXYCHLOROQUINE]	Not Active	Not Active	Not Active	Not Active	Not Active	Not Active	Not Active	Not Active	–
O=C(O)COC(=O)Cc1ccccc1Nc1c(Cl)cccc1Cl [ACECLOFENAC]	Not Active	Not Active	Not Active	Not Active	Not Active	Not Active	Not Active	Not Active	–
O=C(O)CCc1nc(-c2ccccc2)c(-c2ccccc2)o1 [OXAPROZIN]	Not Active	Not Active	Not Active	Not Active	Not Active	Not Active	Not Active	Not Active	–
O=C(O)CO [GLYCOLIC ACID]	Not Active	Not Active	Not Active	Not Active	Not Active	Not Active	Not Active	Not Active	–
COC(=O)Nc1nc2ccc(Sc3ccccc3)cc2[nH]1 [FENBENDAZOLE]	Not Active	Not Active	Not Active	Not Active	Not Active	Not Active	Not Active	Not Active	–
CC12CCC(CC1)C(C)(C)O2 [EUCALYPTOL]	Not Active	Not Active	Not Active	Not Active	Not Active	Not Active	Not Active	Not Active	–
O=C(Nc1ccc(Cl)c(Cl)c1)c1cc(Cl)cc(Cl)c1O [3,3',4',5-TETRACHLOROSALICYLANILIDE]	Not Active	Not Active	Not Active	Not Active	Not Active	Not Active	Not Active	Not Active	–
Cc1ccnc2c1NC(=O)c1cccnc1N2C1CC1 [NEVIRAPINE]	Not Active	Not Active	Not Active	Not Active	Not Active	Not Active	Not Active	Not Active	–
O=C1CN(/N=C/c2ccc([N+](=O)[O-])o2)C(=O)N1 [NITROFURANTOIN]	Not Active	Not Active	Not Active	Not Active	Not Active	Not Active	Not Active	Not Active	–
O=c1[nH]c2ccccc2c2ccccc12	Not Active	Not Active	Not Active	Not Active	Not Active	Not Active	Not Active	Not Active	–
COC(=O)C[C@](O)(CCC(C)(C)O)C(=O)O[C@@H]1C(OC)=C[C@]23CCCN2CCc2cc4c(cc2[C@H]13)OCO4 [HARRINGTONINE]	Not Active	Not Active	Not Active	Not Active	Not Active	Not Active	Not Active	Not Active	–

Source: ChEMBL document CHEMBL1909046, “DrugMatrix in vitro pharmacology data”
